Experimental findings from patent publication US20240409558A1, “IRREVERSIBLE INHIBITORS OF KRAS” (BIOMEA FUSION, INC., priority 2021, published 2024) are described below.

SMILES strings stand for the structures. Read-outs that look alike come from different tables or passages of the source. Where only a bound is given, the exact number is not on record here.

The subject of the experiment is human KRAS G12C mutated cell line MIA PaCa-2. The experiment in a line: Inhibition of proliferation of MIA PaCa-2 cells (CellTiter-Glo, 7 day). It is filed as cell-based. The note with it: 168 h, mean, read-out: MIA PaCa-2 IC50 (μM) 7 day Mean. A digest of the protocol: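 MIA PaCa-2 cells (RPMI-1640, 10% FBS) seeded at about 1000 cells/well; eight compound concentrations in duplicate added 2 h later, with media and compound refreshed on day 3. ATP-luminescence viability read on day 7 by CellTiter-Glo; % inhibition relative to 0.2% DMSO control.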
On the technique in general: ATP-based viability assays read luminescence as a measure of living cells.

`C=CC(=O)N1CCN(c2nc(OC[C@@]34CCCN3C[C@H](F)C4)nc3cc(-c4cc(O)cc(Cl)c4C4CC4)c(F)cc23)C2(CC2)C1` [Compound 316, 1-[4-[7-(3-chloro-2-cyclopropyl-5-hydroxy-phenyl)-6-fluoro-2-[[(2R,8S)-2-fluoro-1,2,3,5,6,7-hexahydropyrrolizin-8-yl]methoxy]quinazolin-4-yl]-4,7-diazaspiro[2.5]octan-7-yl]prop-2-en-1-one]: the IC50 (commonly the concentration that gives 50% inhibition) (Table 3, 7 day) is more than 1 µM.
Same read-out and setting: for `C=CC(=O)N1C2CCC1CN(c1cc(OC[C@@]34CCCN3C[C@H](F)C4)nc3c(F)c(-c4cc(O)cc(Cl)c4C4CC4)ccc13)C2` [Compound 326] the value was more than 1 µM; for `C=CC(=O)N1CCC(c2nc(OC[C@@]34CCCN3C[C@H](F)C4)nc3c(F)c(-c4cc(O)cc5ccc(F)c(F)c45)ncc23)CC1` [Compound 330], 0.00664 µM; for `C=CC(=O)N1CCC(C)(c2nc(OC[C@@]34CCCN3C[C@H](F)C4)nc3c(F)c(-c4cc(O)cc(Cl)c4C4CC4)ncc23)CC1` [Compound 335], 0.858 µM.
Same read-out and setting: as for `C=CC(=O)N1CCN(c2nc(OC[C@@]34CCCN3C[C@H](F)C4)nc3cc(-c4cccc5cccc(Cl)c45)c(F)cc23)C2(CC2)C1` [Compound 315], the figure is more than 1 µM.
`C=CC(=O)N1C2CCC1CN(c1nc(OC[C@@]34CCCN3C[C@H](F)C4)nc3c(F)c(-c4c(C)c(Cl)cc5[nH]ncc45)ncc13)C2` [Compound 304, 1-[3-[7-(6-chloro-5-methyl-1H-indazol-4-yl)-8-fluoro-2-[[(2R,8S)-2-fluoro-1,2,3,5,6,7-hexahydropyrrolizin-8-yl]methoxy]pyrido[4,3-d]pyrimidin-4-yl]-3,8-diazabicyclo[3.2.1]octan-8-yl]prop-2-en-1-one]: the IC50 (Table 3, 7 day) was 0.017 µM.
For `Oc1cccc(Cl)c1-c1cc(F)c2c(N3CCNCC34CC4)nc(OC[C@@]34CCCN3C[C@H](F)C4)nc2c1` [Compound 419, 3-chloro-2-[4-(4,7-diazaspiro[2.5]octan-4-yl)-5-fluoro-2-[[(2R,8S)-2-fluoro-1,2,3,5,6,7-hexahydropyrrolizin-8-yl]methoxy]quinazolin-7-yl]phenol], the IC50 (Table 4, 7 day) was more than 1 µM.
For the molecule `C=CC(=O)N1CCC2(c3nc(OC[C@@]45CCCN4C[C@H](F)C5)nc4c(F)c(-c5cc(O)cc6ccccc56)ncc34)CC2C1` (stereo partly drawn) [Compound 310, 1-[6-[8-fluoro-2-[[(2R,8S)-2-fluoro-1,2,3,5,6,7-hexahydropyrrolizin-8-yl]methoxy]-7-(3-hydroxy-1-naphthyl)pyrido[4,3-d]pyrimidin-4-yl]-3-azabicyclo[4.1.0]heptan-3-yl]prop-2-en-1-one], the IC50 (Table 3, 7 day) was more than 1 µM.
For the molecule `Cn1ccnc1-c1c(F)cccc1-c1cnc2c(N3CC4CCC(C3)N4)nc(OC[C@@]34CCCN3C[C@H](F)C4)nc2c1` [Compound 427, 4-(3,8-diazabicyclo[3.2.1]octan-3-yl)-2-[[(2R,8S)-2-fluoro-1,2,3,5,6,7-hexahydropyrrolizin-8-yl]methoxy]-7-[3-fluoro-2-(1-methylimidazol-2-yl)phenyl]pyrido[3,2-d]pyrimidine], where the note is “Table 4, 7 day”, the IC50 is more than 1 µM.
As to `Oc1cc(-c2ncc3c(C4CCNCC4)nc(OC[C@@]45CCCN4C[C@H](F)C5)nc3c2F)c2c(F)c(F)ccc2c1` [Compound 435, 5,6-difluoro-4-[8-fluoro-2-[[(2R,8S)-2-fluoro-1,2,3,5,6,7-hexahydropyrrolizin-8-yl]methoxy]-4-(4-piperidyl)pyrido[4,3-d]pyrimidin-7-yl]naphthalen-2-ol], the IC50 (Table 4, 7 day) was more than 1 µM.
As to `C=CC(=O)N1CCC(c2nc(OC[C@@]34CCCN3C[C@H](F)C4)nc3c(F)c(-c4cc(O)cc(Cl)c4C4CC4)ncc23)CC1` [Compound 329], the IC50 (Table 3, 7 day) was 0.0144 µM.
The same measure, in the same setting: for `C=CC(=O)N1CCN(c2nc(OC[C@@]34CCCN3C[C@H](F)C4)nc3cc(-c4c(O)cccc4C4CC4)cnc23)[C@H](C)C1` [Compound 320, 1-[(3R)-4-[7-(2-cyclopropyl-6-hydroxy-phenyl)-2-[[(2R,8S)-2-fluoro-1,2,3,5,6,7-hexahydropyrrolizin-8-yl]methoxy]pyrido[3,2-d]pyrimidin-4-yl]-3-methyl-piperazin-1-yl]prop-2-en-1-one] the value was more than 1 µM.
As for `Oc1cc(Cl)c(C2CC2)c(-c2ccc3c(N4C[C@H]5C[C@@H]4CN5)nc(OC[C@@]45CCCN4C[C@H](F)C5)nc3c2F)c1` [Compound 424, 3-chloro-4-cyclopropyl-5-[4-[(1R,4R)-2,5-diazabicyclo[2.2.1]heptan-2-y1]-8-fluoro-2-[[(2R,8S)-2-fluoro-1,2,3,5,6,7-hexahydropyrrolizin-8-yl]methoxy]quinazolin-7-yl]phenol], the IC50 (Table 4, 7 day) is more than 1 µM.
On to `C=CC(=O)N1CCN(c2nc(OC[C@@]34CCCN3C[C@H](F)C4)nc3cc(-c4cc(O)cc(Cl)c4C4CC4)c(F)cc23)CC12CC2` [Compound 317, 1-[7-[7-(3-chloro-2-cyclopropyl-5-hydroxy-phenyl)-6-fluoro-2-[[(2R,8S)-2-fluoro-1,2,3,5,6,7-hexahydropyrrolizin-8-yl]methoxy]quinazolin-4-yl]-4,7-diazaspiro[2.5]octan-4-yl]prop-2-en-1-one], for which the IC50 (Table 3, 7 day) was more than 1 µM.
In the case of `Oc1cccc(Cl)c1-c1cc(F)c2c(N3C[C@H]4C[C@@H]3CN4)nc(OC[C@@]34CCCN3C[C@H](F)C4)nc2c1` [Compound 418], for the setting “Table 4, 7 day”, the IC50 is more than 1 µM.
Take `C=CC(=O)N1C[C@H]2C[C@@H]1CN2c1nc(OC[C@@]23CCCN2C[C@H](F)C3)nc2cc(-c3cc(O)cc(Cl)c3C3CC3)cnc12` [Compound 312, 1-[(1R,4R)-5-[7-(3-chloro-2-cyclopropyl-5-hydroxy-phenyl)-2-[[(2R,8S)-2-fluoro-1,2,3,5,6,7-hexahydropyrrolizin-8-yl]methoxy]pyrido[3,2-d]pyrimidin-4-y1]-2,5-diazabicyclo[2.2.1]heptan-2-yl]prop-2-en-1-one]: the IC50 (Table 3, 7 day) is more than 1 µM.
On to `C=CC(=O)N1CCC(c2nc(OC[C@@]34CCCN3C[C@H](F)C4)nc3c(F)c(-c4cc(O)cc5ccc(F)c(F)c45)ncc23)C[C@@H]1C` (stereo partly drawn) [Compound 331, 1-[(2S)-4-[7-(7,8-difluoro-3-hydroxy-1-naphthyl)-8-fluoro-2-[[(2R,8S)-2-fluoro-1,2,3,5,6,7-hexahydropyrrolizin-8-yl]methoxy]pyrido[4,3-d]pyrimidin-4-y1]-2-methyl-1-piperidyl]prop-2-en-1-one], for which the IC50 (Table 3, 7 day) came to 0.0373 µM.
Take `Oc1cc(Cl)c(C2CC2)c(-c2cc3nc(OC[C@@]45CCCN4C[C@H](F)C5)nc(N4CC5CCC(C4)N5)c3cc2F)c1` [Compound 404, 3-chloro-4-cyclopropyl-5-[4-(3,8-diazabicyclo[3.2.1]octan-3-yl)-6-fluoro-2-[[(2R,8S)-2-fluoro-1,2,3,5,6,7-hexahydropyrrolizin-8-yl]methoxy]quinazolin-7-yl]phenol]: the IC50 (Table 4, 7 day) is more than 1 µM.
Still for that read-out and setting: for `OC1Cc2cccc(Cl)c2N(c2ncc3c(N4CC5CCC(C4)N5)nc(OC[C@@]45CCCN4C[C@H](F)C5)nc3c2F)C1` (some centres unmarked) [Compound 432] the value was more than 1 µM; for `Oc1cc(-c2ncc3c(C45CCNCC4C5)nc(OC[C@@]45CCCN4C[C@H](F)C5)nc3c2F)c2ccccc2c1` (stereo partly drawn) [Compound 403, 4-[4-(3-azabicyclo[4.1.0]heptan-6-yl)-8-fluoro-2-[[(2R,8S)-2-fluoro-1,2,3,5,6,7-hexahydropyrrolizin-8-yl]methoxy]pyrido[4,3-d]pyrimidin-7-yl]naphthalen-2-ol], 7.83 µM.
On the same count and under the same terms, as for `N#C[C@H]1CNCCN1c1nc(OC[C@@]23CCCN2C[C@H](F)C3)nc2cc(F)c(-c3cccc4cccc(Cl)c34)cc12` [Compound 407, (2R)-1-[6-(8-chloro-1-naphthyl)-7-fluoro-2-[[(2R,8S)-2-fluoro-1,2,3,5,6,7-hexahydropyrrolizin-8-yl]methoxy]quinazolin-4-yl]piperazine-2-carbonitrile], the figure is more than 1 µM; as for `Oc1cc(Cl)c(C2CC2)c(-c2ncc3c(N4CCC5(CC4)CN5)nc(OC[C@@]45CCCN4C[C@H](F)C5)nc3c2F)c1` [Compound 438, 3-chloro-4-cyclopropyl-5-[4-(1,6-diazaspiro[2.5]octan-6-yl)-8-fluoro-2-[[(2R,8S)-2-fluoro-1,2,3,5,6,7-hexahydropyrrolizin-8-yl]methoxy]pyrido[4,3-d]pyrimidin-7-yl]phenol], 0.229 µM; as for `Oc1cc(Cl)c(C2CC2)c(-c2cc3nc(OC[C@@]45CCCN4C[C@H](F)C5)nc(N4CCNC5(CC5)C4)c3cc2F)c1` [Compound 405, 3-chloro-4-cyclopropyl-5-[4-(4,7-diazaspiro[2.5]octan-7-y1)-6-fluoro-2-[[(2R,8S)-2-fluoro-1,2,3,5,6,7-hexahydropyrrolizin-8-yl]methoxy]quinazolin-7-yl]phenol], more than 1 µM.
